In ChEMBL document CHEMBL1201862, “PubChem BioAssay data set” (2004):
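How tested: cells in 96-well plates exposed to compound for 48 hours at five concentrations. Here, GI50 denotes the concentration required for 50% inhibition of growth.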 Activity calls are given as the source filed them. Cut-off read from the data, not from the text of the source: active = GI50 up to about 1.1 µM and inactive = higher.

Experiments:
Test in all cases: growth of human tumour cells (NCI), 48 h
LOX IMVI = tested on: LOX IMVI
RPMI-8226 = tested on: RPMI-8226
HOP-92 = tested on: HOP-92
786-0 = tested on: 786-0
OVCAR-5 = tested on: OVCAR-5
ACHN = tested on: ACHN
NCI-H522 = tested on: NCI-H522
SK-MEL-28 = tested on: SK-MEL-28
SN12C = tested on: SN12C
MCF7 = tested on: MCF7
OVCAR-8 = tested on: OVCAR-8
COLO 205 = tested on: COLO 205
SW-620 = tested on: SW-620
HL-60 = tested on: HL-60
SNB-75 = tested on: SNB-75
K562 = tested on: K562
UO-31 = tested on: UO-31
M14 = tested on: M14
SK-OV-3 = tested on: SK-OV-3
OVCAR-4 = tested on: OVCAR-4

O=C1NC2NC3NC(=O)NC3NC2N1 (centres undefined)
GI50 (LOX IMVI): > 100 µM (inactive) | GI50 (RPMI-8226): > 100 µM (inactive) | GI50 (HOP-92): > 100 µM (inactive) | GI50 (786-0): > 100 µM (inactive) | GI50 (OVCAR-5): > 100 µM (inactive) | GI50 (ACHN): > 100 µM (inactive) | GI50 (NCI-H522): > 100 µM (inactive) | GI50 (SK-MEL-28): > 100 µM (inactive) | GI50 (SN12C): > 100 µM (inactive) | GI50 (MCF7): > 100 µM (inactive) | GI50 (OVCAR-8): > 100 µM (inactive) | GI50 (COLO 205): > 100 µM (inactive) | GI50 (SW-620): > 100 µM (inactive) | GI50 (HL-60): > 100 µM (inactive) | GI50 (SNB-75): 76.4 µM (inactive) | GI50 (K562): > 100 µM (inactive) | GI50 (UO-31): > 100 µM (inactive) | GI50 (M14): > 100 µM (inactive)

O=C1OCc2c1cc1cc3c(cc1c2-c1ccc2c(c1)OCO2)OCO3.O=C1OCc2cc3cc4c(cc3c(-c3ccc5c(c3)OCO5)c21)OCO4
GI50 (LOX IMVI): 14.2 µM (inactive) | GI50 (RPMI-8226): 4.31 µM (inactive) | GI50 (HOP-92): 13.8 µM (inactive) | GI50 (SK-OV-3): 17.8 µM (inactive) | GI50 (OVCAR-5): 21 µM (inactive) | GI50 (OVCAR-4): 18 µM (inactive) | GI50 (SK-MEL-28): 45.4 µM (inactive) | GI50 (SN12C): 15 µM (inactive) | GI50 (MCF7): 15.4 µM (inactive) | GI50 (OVCAR-8): 13.5 µM (inactive) | GI50 (COLO 205): 5.79 µM (inactive) | GI50 (SW-620): 4.51 µM (inactive) | GI50 (HL-60): 34.8 µM (inactive) | GI50 (SNB-75): 10 µM (inactive) | GI50 (K562): 0.979 µM (active) | GI50 (UO-31): 14 µM (inactive) | GI50 (M14): 4.47 µM (inactive)

C=C(CBr)CCCOCc1ccccc1
GI50 (LOX IMVI): 30.6 µM (inactive) | GI50 (RPMI-8226): 29.7 µM (inactive) | GI50 (HOP-92): 21.6 µM (inactive) | GI50 (SK-OV-3): 35.5 µM (inactive) | GI50 (786-0): 36.6 µM (inactive) | GI50 (OVCAR-5): 18.7 µM (inactive) | GI50 (OVCAR-4): 17.6 µM (inactive) | GI50 (ACHN): 14.1 µM (inactive) | GI50 (NCI-H522): 22.3 µM (inactive) | GI50 (SK-MEL-28): 40.9 µM (inactive) | GI50 (SN12C): 24.5 µM (inactive) | GI50 (MCF7): 30.5 µM (inactive) | GI50 (OVCAR-8): 17 µM (inactive) | GI50 (COLO 205): 27.6 µM (inactive) | GI50 (SW-620): 32.7 µM (inactive) | GI50 (HL-60): 23.5 µM (inactive) | GI50 (K562): 40.3 µM (inactive) | GI50 (UO-31): 13.7 µM (inactive) | GI50 (M14): 16.7 µM (inactive)

N/C(=N/O)N/N=C\c1cc(Cl)cc(Cl)c1O
GI50 (LOX IMVI): 0.918 µM (active) | GI50 (RPMI-8226): 3.99 µM (inactive) | GI50 (HOP-92): 7.26 µM (inactive) | GI50 (SK-OV-3): 4.91 µM (inactive) | GI50 (OVCAR-5): 7.36 µM (inactive) | GI50 (OVCAR-4): 8.04 µM (inactive) | GI50 (NCI-H522): 3.47 µM (inactive) | GI50 (SK-MEL-28): 14.1 µM (inactive) | GI50 (SN12C): 1.62 µM (inactive) | GI50 (MCF7): 0.428 µM (active) | GI50 (OVCAR-8): 2.38 µM (inactive) | GI50 (COLO 205): 5.7 µM (inactive) | GI50 (SW-620): 3.97 µM (inactive) | GI50 (HL-60): 0.0116 µM (active) | GI50 (SNB-75): 1.03 µM (active) | GI50 (K562): 3.06 µM (inactive) | GI50 (UO-31): 4.25 µM (inactive)

CC[C@@H]1ON(C)[C@H]2CN(C)C(=O)[C@@H]12
GI50 (LOX IMVI): > 100 µM (inactive) | GI50 (RPMI-8226): > 100 µM (inactive) | GI50 (HOP-92): > 100 µM (inactive) | GI50 (SK-OV-3): > 100 µM (inactive) | GI50 (OVCAR-5): > 100 µM (inactive) | GI50 (OVCAR-4): > 100 µM (inactive) | GI50 (ACHN): > 100 µM (inactive) | GI50 (NCI-H522): > 100 µM (inactive) | GI50 (SK-MEL-28): > 100 µM (inactive) | GI50 (SN12C): > 100 µM (inactive) | GI50 (MCF7): > 100 µM (inactive) | GI50 (OVCAR-8): > 100 µM (inactive) | GI50 (COLO 205): > 100 µM (inactive) | GI50 (SW-620): > 100 µM (inactive) | GI50 (HL-60): > 100 µM (inactive) | GI50 (K562): > 100 µM (inactive) | GI50 (UO-31): > 100 µM (inactive) | GI50 (M14): > 100 µM (inactive)

CC1(CO)OC(n2cnc3cncnc32)CC1O (centres undefined)
GI50 (RPMI-8226): > 100 µM (inactive) | GI50 (HOP-92): > 100 µM (inactive) | GI50 (SK-OV-3): > 100 µM (inactive) | GI50 (786-0): > 100 µM (inactive) | GI50 (OVCAR-5): > 100 µM (inactive) | GI50 (OVCAR-4): > 100 µM (inactive) | GI50 (ACHN): > 100 µM (inactive) | GI50 (NCI-H522): > 100 µM (inactive) | GI50 (SK-MEL-28): > 100 µM (inactive) | GI50 (SN12C): > 100 µM (inactive) | GI50 (MCF7): > 100 µM (inactive) | GI50 (OVCAR-8): > 100 µM (inactive) | GI50 (COLO 205): > 100 µM (inactive) | GI50 (SW-620): > 100 µM (inactive) | GI50 (HL-60): > 100 µM (inactive) | GI50 (K562): > 100 µM (inactive) | GI50 (UO-31): > 100 µM (inactive) | GI50 (M14): > 100 µM (inactive)

CCOC(=O)c1cc(Cl)ccc1OC(N)=O
GI50 (LOX IMVI): > 100 µM (inactive) | GI50 (RPMI-8226): > 100 µM (inactive) | GI50 (HOP-92): > 100 µM (inactive) | GI50 (SK-OV-3): > 100 µM (inactive) | GI50 (OVCAR-5): > 100 µM (inactive) | GI50 (OVCAR-4): > 100 µM (inactive) | GI50 (SK-MEL-28): > 100 µM (inactive) | GI50 (SN12C): > 100 µM (inactive) | GI50 (MCF7): > 100 µM (inactive) | GI50 (OVCAR-8): > 100 µM (inactive) | GI50 (COLO 205): > 100 µM (inactive) | GI50 (SW-620): > 100 µM (inactive) | GI50 (HL-60): > 100 µM (inactive) | GI50 (SNB-75): > 100 µM (inactive) | GI50 (K562): > 100 µM (inactive) | GI50 (UO-31): > 100 µM (inactive)

CC1(C)CCSC(/C=C/c2ccccc2)=N1
GI50 (LOX IMVI): 13.7 µM (inactive) | GI50 (RPMI-8226): 17.7 µM (inactive) | GI50 (HOP-92): 13.4 µM (inactive) | GI50 (SK-OV-3): 43.9 µM (inactive) | GI50 (786-0): 12.9 µM (inactive) | GI50 (OVCAR-5): 20.2 µM (inactive) | GI50 (OVCAR-4): 16 µM (inactive) | GI50 (ACHN): 17.5 µM (inactive) | GI50 (NCI-H522): 17 µM (inactive) | GI50 (SK-MEL-28): 19.3 µM (inactive) | GI50 (MCF7): 12.3 µM (inactive) | GI50 (OVCAR-8): 15.5 µM (inactive) | GI50 (SW-620): 19.1 µM (inactive) | GI50 (HL-60): 33.1 µM (inactive) | GI50 (K562): > 100 µM (inactive) | GI50 (M14): 13.2 µM (inactive)
